Assay results: patent US7405317B2, “Phosphate-bearing prodrugs of sulfonyl hydrazines as hypoxia-selective antineoplastic agents” (priority 2004, dated 2008)

How the values were obtained:
[1] = Short term stability as a function of pH and citrate buffer (HPLC); type: physicochemical; details: 20 mg/mL
Procedure: The stabilities of VNP40541 were investigated. The sample (20 mg/mL) was dissolved in 20 mM citric acid and titrated to pH 2.0, pH 3.0, pH 4.0, pH 5.0, pH 6.0, and pH 7.0. To control for buffer catalysis, the drug was also titrated to pH 2.0, pH 5.0, and pH 6.0 in the absence of citrate. The samples were stored at 40° C. for 3 hours, 24 hours, and 3 days, and at room temperature for 24 hours, 3 days. Upon completion of each time point, samples were placed in a freezer at −15° C. Control samples of each preparation were also stored in the freezer. Each sample was analyzed by HPLC repetitively, at various time points, to determine the concentration of the respective drug.

[2] = system: SHP77 human lung carcinoma; assay: In vivo anti-tumor activity, SHP77 xenograft; parameters: species or system mice; details: SHP77/Scid-Beige; dose VNP40541 110 mpk, VNP40551 85 mpk
Procedure: (§1) The anti-tumor effects of aforementioned prodrugs are evaluated in both solid and liquid tumor models, including the B16-F10 murine melanoma, HTB177 human lung carcinoma models, DLD1 human colon carcinoma, EMT-6 murine mammary gland carcinoma, L1210 murine leukemia, lymphoma, prostate cancer, pancreatic cancer, and head-and-neck cancer. The prodrugs are given intravenously, orally, or intraperitoneally at doses from 10 mg/kg to 2000 mg/kg; they are give at different dosing schedules such as 4 times daily, once daily, or once every several days for up to 60 doses. Testing tumor cells were implanted subcutaneously into mice, which were randomized into groups immediately after tumor cell implantation (Day 0). Mice were injected intraperitoneally (ip) with either a bolus injection of 0.1 mL PBS or drug. The treatment was carried out in a designed dosing schedule. Tumor measurement in three dimensions was determined once a week with the formula L×H×W/2, where L, H, and W represent length, height, and width, respectively. The toxicity of these drugs in mice was mild as determined by body weight loss and animal appearance.
Efficacy of KS119 was studied in murine tumor model and human xenograft models. EMT-6 murine mammary carcinoma cells (3×10^5 cells/mouse) were implanted subcutaneously into Balb/c mice. […]

[3] = system: CHO-450red (human cytochrome P-450 reductase transfected CHO cells); assay: Aerobic/hypoxic cell survival, cytochrome P-450 reductase transfected CHO cells; type: cell-based; details: drug 10 μM
Procedure: EMT6 or CHO (parental or human cytochrome P-450 reductase transfected) cells, seeded in glass milk dilution bottles, were gassed for 2 hours through a rubber septum fitted with 13 gauge (inflow) and 18 gauge (outflow) needles with a mixture of 5% CO2, oxygen at various concentrations, with the balance of the mixture made up of nitrogen, to establish various hypoxic conditions. Drugs were then injected without disrupting hypoxia. After two hours, cells were collected and plated in a clonogenic assay to determine the surviving fraction, compared to untreated controls.
For in vitro analysis, KS119W must be converted to KS119OH (1) in an AP-catalyzed reaction shown above in FIG. 2, as the phosphorylated parent drug cannot cross cell membranes. KS119OH is then used in all subsequent in vitro studies shown in this section.
Like KS119, cytochrome P-450 reductase can activate KS1190H under hypoxic conditions.

[4] = Toxicity of treatment in tumor-bearing mice (body weight, blood cell count, appearance); type: in vivo; details: three tumor models in mice, edema observed
Procedure: as §1
Efficacies of KS119W and KS119 were compared with equivalence molar doses in EMT-6 tumor and H460 tumor models. KS119W was formulated with 0.25M sodium bicarbonate solution. The treatment was started when tumors researched 150 to 200 mm^3, and lasted up to 2 weeks. KS119 at doses of 80 and 100 mg/kg and KS119W at doses of 97.6 and 121.3 mg/kg were daily administrated into mice via ip injection. […] The toxicity of KS119 and KS119W were dose-dependent. To assess the toxicity of treatment, body weight and peripheral blood cell count were monitored after treatment.
Combined therapy of KS119W with cytoxan (CTX) was evaluated by using KS119W at dose below the MTD in combination with nontoxic dose of CTX against EMT-6 murine mammary carcinoma and H460 human lung carcinoma in CD-1 nude mice. The tumors were allowed to grow to a size of approximately 200 mm^3. In H460 tumor model, the animals received either with 4 doses 180 mg/kg and 1 dose 240 mg/kg of […] or CTX at dose of 100 mg/kg per dose per animal, ip injecting the drugs on 15, 22, 27, 34 and 43 days after the tumor implantation. In the combination studies, CTX was given two hours after dosing KS119W. […] The inhibition of combination therapy was statistically significant against all control groups with p values of 0.003, 0.015 and 0.038, respectively. Additive toxicity at the doses used for combination was manageable; while the 180 mg/kg qw ×4 doses of KS119W alone caused a maximum net body weight loss of 4.5%, the same dose in combination with 4 doses of CTX at 100 mg/kg per week caused 8.6% weight loss but no death. A similar degree of growth inhibition was also observed with EMT-6 tumor model. […]

In the case of `C[C@@H](OC(=O)N(N(CCCl)S(C)(=O)=O)S(C)(=O)=O)c1ccc([N+](=O)[O-])c(OP(=O)(O)O)c1` [VNP40541], the “Assay (HPLC, relative to control samples stored at −15° C.)” value ([1]; pH 2.0, citrate 20 mM, 3 hrs 40° C.) is reported as 98.8%, the “Assay (HPLC, relative to control samples stored at −15° C.)” value ([1]; pH 2.0, citrate 20 mM, 24 hrs 40° C.) is reported as 92.3% and the “Assay (HPLC, relative to control samples stored at −15° C.)” value ([1]; pH 2.0, citrate 20 mM, 24 hrs Room Temp.) is reported as 99.3%. The “Assay (HPLC, relative to control samples stored at −15° C.)” value ([1]; pH 2.0, citrate None, 3 hrs 40° C.) was 98.9%, the “Assay (HPLC, relative to control samples stored at −15° C.)” value ([1]; pH 2.0, citrate None, 24 hrs 40° C.) was 91.7% and the “Assay (HPLC, relative to control samples stored at −15° C.)” value ([1]; pH 2.0, citrate None, 24 hrs Room Temp.) was 99.4%. The “Assay (HPLC, relative to control samples stored at −15° C.)” value ([1]; pH 3.0, citrate 20 mM, 3 hrs 40° C.) was 98.9%, the “Assay (HPLC, relative to control samples stored at −15° C.)” value ([1]; pH 3.0, citrate 20 mM, 24 hrs 40° C.) was 91.3% and the “Assay (HPLC, relative to control samples stored at −15° C.)” value ([1]; pH 3.0, citrate 20 mM, 24 hrs Room Temp.) was 99.3%. The “Assay (HPLC, relative to control samples stored at −15° C.)” value ([1]; pH 4.0, citrate 20 mM, 3 hrs 40° C.) was 99.8%, the “Assay (HPLC, relative to control samples stored at −15° C.)” value ([1]; pH 4.0, citrate 20 mM, 24 hrs 40° C.) was 92.2% and the “Assay (HPLC, relative to control samples stored at −15° C.)” value ([1]; pH 4.0, citrate 20 mM, 24 hrs Room Temp.) was 100.1%. The “Assay (HPLC, relative to control samples stored at −15° C.)” value ([1]; pH 5.0, citrate 20 mM, 3 hrs 40° C.) was 98.8%, the “Assay (HPLC, relative to control samples stored at −15° C.)” value ([1]; pH 5.0, citrate 20 mM, 24 hrs 40° C.) was 92.2% and the “Assay (HPLC, relative to control samples stored at −15° C.)” value ([1]; pH 5.0, citrate 20 mM, 24 hrs Room Temp.) was 99.4%. The “Assay (HPLC, relative to control samples stored at −15° C.)” value ([1]; pH 5.0, citrate None, 3 hrs 40° C.) was 99.4%, the “Assay (HPLC, relative to control samples stored at −15° C.)” value ([1]; pH 5.0, citrate None, 24 hrs 40° C.) was 92.5% and the “Assay (HPLC, relative to control samples stored at −15° C.)” value ([1]; pH 5.0, citrate None, 24 hrs Room Temp.) was 99.7%. The “Assay (HPLC, relative to control samples stored at −15° C.)” value ([1]; pH 6.0, citrate 20 mM, 3 hrs 40° C.) was 99.0%, the “Assay (HPLC, relative to control samples stored at −15° C.)” value ([1]; pH 6.0, citrate 20 mM, 24 hrs 40° C.) was 93.8% and the “Assay (HPLC, relative to control samples stored at −15° C.)” value ([1]; pH 6.0, citrate 20 mM, 24 hrs Room Temp.) was 98.6%. The “Assay (HPLC, relative to control samples stored at −15° C.)” value ([1]; pH 6.0, citrate None, 3 hrs 40° C.) was 99.3%, the “Assay (HPLC, relative to control samples stored at −15° C.)” value ([1]; pH 6.0, citrate None, 24 hrs 40° C.) was 93.8% and the “Assay (HPLC, relative to control samples stored at −15° C.)” value ([1]; pH 6.0, citrate None, 24 hrs Room Temp.) was 100.0%. For the same compound, the “Assay (HPLC, relative to control samples stored at −15° C.)” value ([1]; pH 7.0, citrate 20 mM, 3 hrs 40° C.) was 99.6%, the “Assay (HPLC, relative to control samples stored at −15° C.)” value ([1]; pH 7.0, citrate 20 mM, 24 hrs 40° C.) was 94.0% and the “Assay (HPLC, relative to control samples stored at −15° C.)” value ([1]; pH 7.0, citrate 20 mM, 24 hrs Room Temp.) was 99.7%. For the same compound, the “Inhibition (%)” value [2] was 83%, the “Surviving fraction at 0.1% oxygen” value ([3]; 0.1% oxygen) was 0.001368 and the “Surviving fraction in air” value ([3]; air) was 0.9277. For the same compound, the “toxicity compared between the enantiomers” value [4] was “lower toxicity, particularly having less edema observed”.
